“Also recorded” adds a separate entry of the source.
How the values were obtained:
[1] = system: endogenous ULK1; assay: Immunoblot of endogenous ULK1 P-Ser555 in primary murine embryonic fibroblasts (MEFs); format: cell-based; conditions: wild-type vs AMPK-deficient, 2 mM AICAR for 1 h
[2] = system: endogenous ULK1; assay: Immunoblot of endogenous ULK1 Ser555 phosphorylation in primary murine hepatocytes; format: cell-based; conditions: wild-type vs AMPK-deficient, 2 mM metformin for 2 h
Procedure: Data shown as mean+/−SEM. * p<0.01 (B) Primary hepatocytes derived from ULK1^+/+ or ULK1^+/− mice or AMPKa1^−/− a2^L/+ or AMPKa1^−/− a2^L/L as described in methods were placed in media containing 2 mM metformin (met) or vehicle (veh) for 2 h. Lysates were immunoblotted with the indicated antibodies.
Primary hepatocytes were isolated. Briefly, livers were perfused with Hank's balanced salt solution (HESS, KCI, 5.4 mM; KH2PO4, 0.45 mM; NaCl, 138 mM; NaHCO2, 4.2 mM; Na2HPO4, 0.34 mM; glucose, 5.5 mM; HEPES, 1 M; EGTA, 50 mM; CaCl2, 50 mM; pH 7.4). Livers were washed at a rate of 5 ml/min using the portal vein before collagenase (0.025%) was added. Cell viability was assessed by the trypan blue exclusion test and was always higher than 60%. […]
Cell lysis, immunoprecipitations, and mammalian autophagy analysis. […] Immunoprecipitated proteins were denatured by the addition of 20 pl of sample buffer and boiling for 5 minutes, resolved by 8%-16% SDSPAGE, and analyzed by immunoblottina as described. […] Quantification of westerns blots was achieved using Kodak Multi Gage software and normalizing to the appropriate loading control (actin when comparing p62 or LC3, or total protein level when comparing phospho-specific antibodies). […]

[3] = system: T1, myc-tagged catalytically inactive (KI: K46I) ULK1
T1 sequence: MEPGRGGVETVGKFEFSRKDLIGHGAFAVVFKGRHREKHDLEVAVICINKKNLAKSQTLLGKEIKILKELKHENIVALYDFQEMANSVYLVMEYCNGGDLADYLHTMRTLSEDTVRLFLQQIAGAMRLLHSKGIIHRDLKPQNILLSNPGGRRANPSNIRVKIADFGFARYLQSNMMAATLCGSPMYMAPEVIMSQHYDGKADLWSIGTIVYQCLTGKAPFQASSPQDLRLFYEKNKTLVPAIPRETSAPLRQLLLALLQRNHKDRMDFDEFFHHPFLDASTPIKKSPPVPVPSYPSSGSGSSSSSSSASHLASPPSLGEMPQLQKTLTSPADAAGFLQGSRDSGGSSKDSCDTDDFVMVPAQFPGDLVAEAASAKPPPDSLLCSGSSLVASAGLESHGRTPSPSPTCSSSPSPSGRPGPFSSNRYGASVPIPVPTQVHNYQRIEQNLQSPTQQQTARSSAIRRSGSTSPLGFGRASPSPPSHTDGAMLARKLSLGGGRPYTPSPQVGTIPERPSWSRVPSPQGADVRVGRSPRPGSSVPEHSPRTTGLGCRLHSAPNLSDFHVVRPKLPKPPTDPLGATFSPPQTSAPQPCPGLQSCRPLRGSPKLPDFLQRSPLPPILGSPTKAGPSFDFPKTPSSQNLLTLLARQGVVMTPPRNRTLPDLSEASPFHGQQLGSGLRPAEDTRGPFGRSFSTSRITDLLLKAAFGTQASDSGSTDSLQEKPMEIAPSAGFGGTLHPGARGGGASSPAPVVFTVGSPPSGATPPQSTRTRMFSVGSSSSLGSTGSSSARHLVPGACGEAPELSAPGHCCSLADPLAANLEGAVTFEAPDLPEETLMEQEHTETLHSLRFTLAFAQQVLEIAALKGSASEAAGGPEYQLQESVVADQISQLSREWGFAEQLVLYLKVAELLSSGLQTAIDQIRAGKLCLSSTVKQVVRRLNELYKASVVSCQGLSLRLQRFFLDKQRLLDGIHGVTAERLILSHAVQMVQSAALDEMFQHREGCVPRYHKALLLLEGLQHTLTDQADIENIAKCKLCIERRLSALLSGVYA

[4] = target: myc-tagged wild-type raptor (UniProt Q8N122)
Sequence of myc-tagged wild-type raptor (Q8N122 whole entry, looked up): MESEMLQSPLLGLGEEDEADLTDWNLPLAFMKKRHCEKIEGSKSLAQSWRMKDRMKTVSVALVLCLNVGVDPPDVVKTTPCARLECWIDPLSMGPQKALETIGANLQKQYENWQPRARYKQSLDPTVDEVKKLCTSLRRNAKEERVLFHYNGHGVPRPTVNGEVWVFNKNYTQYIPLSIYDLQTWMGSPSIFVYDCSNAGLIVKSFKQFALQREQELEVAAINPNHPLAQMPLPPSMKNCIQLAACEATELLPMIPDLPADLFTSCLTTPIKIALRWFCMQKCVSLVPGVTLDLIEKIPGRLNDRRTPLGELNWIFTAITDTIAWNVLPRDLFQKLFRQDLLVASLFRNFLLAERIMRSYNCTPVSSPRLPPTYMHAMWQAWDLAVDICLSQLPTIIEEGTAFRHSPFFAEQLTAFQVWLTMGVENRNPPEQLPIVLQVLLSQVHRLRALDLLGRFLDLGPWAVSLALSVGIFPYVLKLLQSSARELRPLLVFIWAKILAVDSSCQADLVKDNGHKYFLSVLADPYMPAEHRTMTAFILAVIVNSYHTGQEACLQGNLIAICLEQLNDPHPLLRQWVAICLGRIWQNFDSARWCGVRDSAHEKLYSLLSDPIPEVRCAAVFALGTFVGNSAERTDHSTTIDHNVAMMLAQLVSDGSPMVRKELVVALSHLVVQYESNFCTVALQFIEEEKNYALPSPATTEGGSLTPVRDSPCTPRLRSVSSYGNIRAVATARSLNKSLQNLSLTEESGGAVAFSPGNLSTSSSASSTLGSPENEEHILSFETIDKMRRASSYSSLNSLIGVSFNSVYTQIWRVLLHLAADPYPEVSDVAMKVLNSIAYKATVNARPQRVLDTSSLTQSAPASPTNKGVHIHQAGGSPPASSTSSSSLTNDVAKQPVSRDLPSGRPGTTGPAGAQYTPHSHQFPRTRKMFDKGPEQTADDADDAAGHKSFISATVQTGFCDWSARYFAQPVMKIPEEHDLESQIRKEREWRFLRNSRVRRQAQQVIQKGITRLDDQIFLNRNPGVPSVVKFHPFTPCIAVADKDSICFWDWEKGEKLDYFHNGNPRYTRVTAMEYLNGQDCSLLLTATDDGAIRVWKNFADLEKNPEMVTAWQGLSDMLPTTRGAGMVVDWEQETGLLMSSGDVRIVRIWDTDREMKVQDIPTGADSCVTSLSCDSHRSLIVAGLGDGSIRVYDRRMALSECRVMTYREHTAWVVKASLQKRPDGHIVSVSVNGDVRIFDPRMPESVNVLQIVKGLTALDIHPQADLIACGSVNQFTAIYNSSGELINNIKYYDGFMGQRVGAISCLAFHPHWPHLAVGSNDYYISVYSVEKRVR

[5] = system: ULK1; assay: Immunoblot with phospho-specific antibodies against ULK1 Ser467 and Ser555 in transfected HEK293T cells; format: cell-based, human; conditions: HEK293T cells with myc-tagged ULK1, 1 mM phenformin for 1 h vs vehicle
Procedure: FIGS. 1A-1F show ULK1 is a conserved substrate of AMPK. (A) Clustal alignment of four conserved sites in ULK1 and two sites in ULK2 matching the optimal AMPK substrate motif. (B) ULK1 and GST or GST-14-3-3 expression vectors were transfected into human embryonic kidney (HEK)293T cells, and placed in media containing […] STO-609 (STO), vehicle (veh), or 5 mM phenformin (Phen) for 1 h. Cell lysates and GST pulldowns were immunoblotted as indicated. […] (D) HEK293T cells transfected with myc-tagged wild-type ULK1 or indicated Serine-to-alanine ULK1 mutants were treated with either vehicle or 1 mM phenformin for 1 h, or were co-transfected with a constitutively active AMPKα1 (aa1-312) mammalian expression vector (11). Proteins from lysates were immunoblotted with phospho-specific antibodies as indicated. […] Phosphorylation of myc-ULK1 detected by immunoblotting with indicated phospho-specific antibodies. […]
Cell lysis, immunoprecipitations, and mammalian autophagy analysis. […] Immunoprecipitated proteins were denatured by the addition of […] of sample buffer and boiling for 5 minutes, resolved by 8%-16% SDSPAGE, and analyzed by immunoblottina as described. […] Quantification of westerns blots was achieved using Kodak Multi Gage software and normalizing to the appropriate loading control (actin when comparing p62 or LC3, or total protein level when comparing phospho-specific antibodies). […]

[6] = system: ULK1; assay: Tandem mass spectrometry (LC/MS/MS) of phosphorylation sites on myc-ULK1 from HEK293T cells; format: cell-based, human
Procedure: FIG. 7A is a diagram of all LC/MS/MS identified in vivo phosphorylation sites in human ULK1. Myc-ULK1 was transfected into human embryonic kidney (HEK)-293T cells, treated with 5 mM phenformin to reduce cellular ATP for 1 hour and immunoprecipitated with anti myc antibody. The IP was run out on SDS PAGE, stained with coomassie, and the band corresponding to myc-ULK1 was cut out, and isolated and subjected to tryptic digest and LC/MS/MS analysis. Three indicated sites matching the AMPK substrate motif were identified, all mapping to the serine-rich unstructured region between the N-terminal kinase domain and the conserved C-terminus that mediates ULK1 binding to its subunits Atg13 and FIP200.
FIG. 7B is a bar graph of quantitative mass spec spectrometry (MS/MS TIC ratio quantification) data showing that tryptic peptides containing Phospho5er555 and Phospho-5er637 of ULK1 are induced by treatment of HEK293T cells with 5 mM phenformin for 1 h.
Mass Spectrometry. Myc-ULK1 overexpressed in HEK293T cells was treated with vehicle or 5 mM phenformin for 1 hour, IP'd with anti myc antibody (Cell Signaling), run out on SDS-PAGE gel and coomassie stained. […] Peptide ions from AMPK predicted phosphorylation sites were also targeted in MS/MS mode for quantitative analyses. […]
Relative Quantification of Phosphorylation Sites. […]

Compound: NC(=O)c1ncn([C@@H]2O[C@H](CO)[C@@H](O)[C@H]2O)c1N [AICAR]
- phosphorylation of endogenous ULK1 on Ser555 [1]: phosphorylation of endogenous ULK1 was observed on Ser555 in an AMPK-dependent manner; also recorded: phosphorylated on Ser555 in an AMPK-dependent manner

Compound: CN(C)C(=N)N=C(N)N [metformin]
- phosphorylation of endogenous ULK1 Ser555 [2]: Increased phosphorylation of endogenous ULK1 Ser555 was observed in wild-type but not AMPK-deficient hepatocytes

Compound: purified active AMPK heterotrimer (partially purified rat liver, Millipore cat #14-305)
- in vitro kinase assay, 32P incorporation [3]: AMPK phosphorylated ULK1 to a greater extent than an established substrate, Raptor
- in vitro kinase assay, 32P incorporation [4]: AMPK phosphorylated ULK1 to a greater extent than an established substrate, Raptor

Compound: [H]/N=C(/N)N/C(=N/[H])NCCc1ccccc1 [phenformin]
- phosphorylation of ULK1 Ser467 and Ser555 (phospho-specific antibodies) [5]: Phosphorylation of both sites was induced
- tryptic peptides containing Phospho-Ser555 and Phospho-Ser637 of ULK1, quantitative mass spectrometry (MS/MS TIC ratio quantification) ([6]; 5 mM phenformin for 1 h): induced
- phosphorylation of ULK1 candidate AMPK sites Ser555, Thr574, Ser637 detected by tandem mass spectrometry ([6]; epitope-tagged ULK1, with or without 5 mM phenformin for 1 hour): all three were phosphorylated only after phenformin treatment
